Patent US9464255B2, “Maleinized ester derivatives” (Elevance Renewable Sciences, Inc., priority 2013, dated 2016)

What was measured:
Kinematic viscosity (KV) = assay type: physicochemical
Description: The maleinated ester derivatives may be biodegradable and may be used as functional base oils. The functional base oil may have a kinetic viscosity (ASTM D-445) in the range from about 2 to about 1000 cSt at 100° C., or from about 2 to about 500, or from about 2 to about 100, or from about 4 to about 10 cSt. The base oil may have a viscosity up to about 35 cSt at 100° C., or in the range from about 3 to about 35 cSt, or in the range from about 5 to about 35 cSt at 100° C.

[1] = Viscosity index (ASTM D2270); assay type: physicochemical
From the text: The functional base oil may have a viscosity index (ASTM D2270) in the range from about 120 to about 250, or from about 130 to about 170.

[2] = system: microbial populations in the inoculum (activated sludge); assay: Bacterial plate counts of reaction flask solutions at Day 28; assay type: cell-based; settings: study termination
Description: Bacterial plate counts are performed on the prepared activated sludge prior to initiation and each replicate reaction flask solution at Day 28. A dilution series of each sample is prepared in sterile, pH 7.2, phosphate-buffered water at 10^−2, 10^−3, 10^−4, 10^−5, and 10^−6. Duplicate 1-mL aliquots of each dilution are directly analyzed by plate counting methods patterned after methods described in Standard Methods for the Examination of Water and Wastewater. (See, American Public Health Association (APHA), American Water Works Association (AWWA), and Water Environment Federation (WEF). 1998. Standard Methods for the Examination of Water and Wastewater, 20th Edition, Part 9215 B, Pour Plate Method). The bacterial growth medium is Plate Count Agar (Difco Laboratories). The plates of inocula are incubated at 26±2° C. for five to six days before counting the number of colonies on plates with fewer than 300 colonies. The number of colonies at the dilution coming closest to 300 colonies is used to calculate colony forming units (CFU)/mL for each sample.

[3] = system: activated sludge (microbial inoculum); assay: Aerobic biodegradability in water containing mineral salts and activated sludge (CO2 evolution, DOC); settings: toxicity control >25% ThCO2 by day 6
Description: A maleinized ester derivative in the form of hydrogenated 1-pentyl triester of maleinated-9-dodecene methyl ester (hereinafter the “test substance”) is evaluated for aerobic biodegradability in water containing mineral salts and activated sludge. The activated sludge is taken from a wastewater treatment plant and is used as a source of microbial inoculum. The objectives of the study are: 1) to evaluate the biodegradability (mineralization to CO2 production) potential of the test substance in an aerobic, aqueous medium; and 2) to determine the mineralization potential of a reference chemical in order to assess the viability of the test inoculum.
Approximately one liter of activated sludge is used as the microbial inoculum. The sludge is collected from the Columbia Wastewater Plant in Columbia, Miss. This plant treats predominately domestic sewage.
An aqueous mineral salts medium provides essential mineral nutrients and trace elements necessary to sustain the inoculum throughout the test period. The mineral salts medium is prepared by addition of reagent grade salts to reagent water. […]
The CO2-free air is introduced into each flask by positive pressure, and the flow rates (50-100 mL/minute) are measured and adjusted using flow meters. […] Temperature of the chamber is continuously measured using a Rees Scientific temperature monitoring system. […]

[4] = Solubility in water (observation in the biodegradation test); assay type: physicochemical
From the text: At study initiation, DOC concentration in the test substance replicates is not detected. […] The increase in DOC concentration from Day 0 to Day 28 is likely due to the insolubility of the test substance in water (that is, more test substance likely went into solution while stirring over time). Consequently, DOC removal cannot be calculated for the test substance.

In the case of `CCCCCOC(=O)CCCCCC/C=C/C(CC)C(CC(=O)OCCCCC)C(=O)OCCCCC` (centres unmarked) [Example 1, Tri-pentanol ester of the maleinized methyl 9-dodecenoate], the “KV (40° C.)” value (Kinematic viscosity (KV); 40° C.) is reported as 24.73 cSt, the “KV (100° C.)” value (Kinematic viscosity (KV); 100° C.) is reported as 5.0 cSt and the “viscosity index (VI)” value [1] is reported as 128. For the same compound, the “Viscosity Index” value ([1]; Table 1, ASTM D2270) was 128.

With `O=C([O-])c1ccccc1.[Na+]` [reference substance, sodium benzoate, reference compound] the bacterial plate count ([2]; single system) was 1.4×10^4 CFU/mL.

With “hydrogenated 1-pentyl triester of maleinated-9-dodecene methyl ester [test substance]” the “inhibition of the inoculum (toxicity control)” value [3] was “not be inhibitory”, the “inhibition of the inoculum (toxicity control)” value ([3]; listed as triester) was “not inhibitory” and the “effect on the population of microbes” value [2] was “no significant effect on the population of microbes”. The bacterial plate count ([2]; replicate A) was 2.4×10^4 CFU/mL, the bacterial plate count ([2]; replicate B) was 3.7×10^4 CFU/mL and the solubility in water [4] was “insoluble in water”.
